Test results taken from patent publication US6737383B1, “Herbicidal oxadiazolidines” (priority 1999, dated 2004).

Legend:
morningglory = assay: Test B pre/postemergence morningglory; assay type: in vivo, Ipomoea hederacea
How it was run: (§1)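 Herbicidal effect was estimated by eye on a ten-point control scale after plants spent twelve to sixteen days in a greenhouse following soil or foliar treatment. Foliar sprays targeted plants at one to four leaves; all doses were formulated in a non-phytotoxic solvent with surfactant.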

rape = assay: Test B pre/postemergence rape; assay type: in vivo, Brassica napus
How it was run: as §1

smallflower flatsedge = assay: Test B flood test smallflower flatsedge; assay type: in vivo, Cyperus difformis
How it was run: (§2)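 Plants were grown to the 2-leaf stage before treatment with test chemical, then held in a greenhouse for twelve to sixteen days. Injury was visually rated against untreated controls on a 0–10 scale, where 0 is no effect and 10 is complete control.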

purple nutsedge = assay: Test B pre/postemergence purple nutsedge; assay type: in vivo, Cyperus rotundus
How it was run: as §1

soybean = assay: Test B pre/postemergence soybean; assay type: in vivo, Glycine max
How it was run: as §1

corn = assay: Test B pre/postemergence corn; assay type: in vivo, Zea mays
How it was run: as §1

cocklebur = assay: Test B pre/postemergence cocklebur; assay type: in vivo, Xanthium strumarium
How it was run: as §1

wild oat = assay: Test B pre/postemergence wild oat; assay type: in vivo, Avena fatua
How it was run: as §1

velvetleaf = assay: Test B pre/postemergence velvetleaf; assay type: in vivo, Abutilon theophrasti
How it was run: as §1

sugar beet = assay: Test B pre/postemergence sugar beet; assay type: in vivo, Beta vulgaris
How it was run: as §1

rice = assay: Test B flood test rice; assay type: in vivo, Oryza sativa
How it was run: as §2

surinam grass = assay: Test B pre/postemergence surinam grass; assay type: in vivo, Brachiaria decumbens
How it was run: as §1

blackgrass = assay: Test B pre/postemergence blackgrass; assay type: in vivo, Alopecurus myosuroides
How it was run: as §1

pigweed = assay: Test B pre/postemergence pigweed; assay type: in vivo, Amaranthus retroflexus
How it was run: as §1

bamyardgrass = assay: Test B flood test barnyardgrass; assay type: in vivo, Echinochloa crus-galli
How it was run: as §2

[1] = Postemergence, Rate 62 g/ha, scale 0 to 10, 0 is no effect, 10 is complete control
[2] = Postemergence, Rate 125 g/ha, scale of 0 to 10 where 0 is no effect and 10 is complete control
[3] = Postemergence, Rate 250 g/ha, scale of 0 to 10, 0 is no effect, 10 is complete control
[4] = Postemergence, Rate 500 g/ha, scale of 0 to 10 where 0 is no effect and 10 is complete control
[5] = Preemergence, Rate 62 g/ha, scale of 0 to 10 where 0 is no effect and 10 is complete control
[6] = Preemergence, Rate 125 g/ha, scale of 0 to 10 where 0 is no effect and 10 is complete control
[7] = Preemergence, Rate 250 g/ha, scale 0 to 10 (0 no effect, 10 complete control)
[8] = Preemergence, Rate 500 g/ha, scale of 0 to 10 where 0 is no effect and 10 is complete control
[9] = Rate 62 g/ha, flood test species, Pre-emergence, visual evaluation after twelve to sixteen days
[10] = Rate 125 g/ha, under heading Pre-emergence, flood test species, visual evaluation after twelve to sixteen days
[11] = Rate 250 g/ha, Pre-emergence (flood test species), scale 0 to 10, 0 is no effect, 10 is complete control
[12] = Rate 500 g/ha, Pre-emergence section of Table B, 0 to 10 scale (0 no effect, 10 complete control)

CC(C)N(C(=O)n1oc(=O)n(CC(=O)C2CCC2)c1=O)c1ccc(Cl)cc1 [Compound 643]
Plant response rating, Morningglory (morningglory; [1]): 0 | Morningglory plant response rating (morningglory; [2]): 4 | Morningglory plant response rating (morningglory; [3]): 4 | Plant response rating, Morningglory (morningglory; [4]): 6 | Morningglory plant response rating (morningglory; [5]): 0 | Morningglory plant response rating (morningglory; [6]): 0 | Plant response rating, Morningglory (morningglory; [7]): 0 | Plant response rating, Morningglory (morningglory; [8]): 0 | Rape plant response rating (rape; [2]): 0 | Rape plant response rating (rape; [3]): 0 | Plant response rating, Rape (rape; [4]): 0 | Rape plant response rating (rape; [5]): 0 | Rape plant response rating (rape; [6]): 0 | Plant response rating, Rape (rape; [7]): 0 | Plant response rating, Rape (rape; [8]): 6 | Plant response rating, S. Flatsedge (0 to 10 scale, 0 is no effect, 10 is complete control) (smallflower flatsedge; [9]): 0 | S. Flatsedge plant response rating (0 to 10 scale, 0 is no effect, 10 is complete control) (smallflower flatsedge; [10]): 0 | S. Flatsedge plant response rating (smallflower flatsedge; [11]): 0 | S. Flatsedge plant response rating (smallflower flatsedge; [12]): 0 | Plant response rating, Nutsedge (purple nutsedge; [1]): 0 | Nutsedge plant response rating (purple nutsedge; [2]): 0 | Nutsedge plant response rating (purple nutsedge; [3]): 0 | Plant response rating, Nutsedge (purple nutsedge; [4]): 0 | Nutsedge plant response rating (purple nutsedge; [5]): 0 | Nutsedge plant response rating (purple nutsedge; [6]): 0 | Plant response rating, Nutsedge (purple nutsedge; [7]): 0 | Plant response rating, Nutsedge (purple nutsedge; [8]): 0 | Plant response rating, Soybean (soybean; [1]): 1 | Soybean plant response rating (soybean; [2]): 1 | Soybean plant response rating (soybean; [3]): 1 | Soybean plant response rating (soybean; [5]): 0 | Soybean plant response rating (soybean; [6]): 0 | Plant response rating, Soybean (soybean; [7]): 0 | Plant response rating, Soybean (soybean; [8]): 0 | Plant response rating, Corn (corn; [1]): 0 | Corn plant response rating (corn; [2]): 0 | Corn plant response rating (corn; [3]): 0 | Plant response rating, Corn (corn; [4]): 0 | Corn plant response rating (corn; [5]): 0 | Corn plant response rating (corn; [6]): 0 | Plant response rating, Corn (corn; [7]): 0 | Plant response rating, Corn (corn; [8]): 0 | Plant response rating, Cocklebur (cocklebur; [1]): 0 | Cocklebur plant response rating (cocklebur; [2]): 0 | Cocklebur plant response rating (cocklebur; [3]): 0 | Plant response rating, Cocklebur (cocklebur; [4]): 0 | Cocklebur plant response rating (cocklebur; [5]): 0 | Cocklebur plant response rating (cocklebur; [6]): 0 | Plant response rating, Cocklebur (cocklebur; [7]): 0 | Plant response rating, Cocklebur (cocklebur; [8]): 0 | Plant response rating, Wild oats (wild oat; [1]): 0 | Wild oats plant response rating (wild oat; [2]): 1 | Wild oats plant response rating (wild oat; [3]): 1 | Wild oats plant response rating (wild oat; [5]): 0 | Wild oats plant response rating (wild oat; [6]): 0 | Plant response rating, Wild oats (wild oat; [7]): 0 | Plant response rating, Wild oats (wild oat; [8]): 1 | Plant response rating, Velvetleaf (velvetleaf; [1]): 0 | Velvetleaf plant response rating (velvetleaf; [2]): 0 | Velvetleaf plant response rating (velvetleaf; [3]): 0 | Velvetleaf plant response rating (velvetleaf; [5]): 0 | Velvetleaf plant response rating (velvetleaf; [6]): 0 | Plant response rating, Velvetleaf (velvetleaf; [7]): 0 | Plant response rating, Velvetleaf (velvetleaf; [8]): 0 | Plant response rating, Sugarbeets (sugar beet; [1]): 0 | Sugarbeets plant response rating (sugar beet; [2]): 0 | Sugarbeets plant response rating (sugar beet; [3]): 0 | Sugarbeets plant response rating (sugar beet; [5]): 0 | Sugarbeets plant response rating (sugar beet; [6]): 0 | Plant response rating, Sugarbeets (sugar beet; [7]): 0 | Plant response rating, Sugarbeets (sugar beet; [8]): 0 | Plant response rating, Rice (0 to 10 scale, 0 is no effect, 10 is complete control) (rice; [9]): 0 | Rice plant response rating (0 to 10 scale, 0 is no effect, 10 is complete control) (rice; [10]): 0 | Rice plant response rating (rice; [11]): 0 | Rice plant response rating (rice; [12]): 0 | Plant response rating, B. signalgrass (surinam grass; [1]): 0 | Plant response rating, B. signalgrass (surinam grass; [2]): 0 | B. signalgrass plant response rating (surinam grass; [3]): 0 | Plant response rating, B. signalgrass (surinam grass; [4]): 2 | B. signalgrass plant response rating (surinam grass; [5]): 0 | B. signalgrass plant response rating (surinam grass; [6]): 2 | Plant response rating, B. signalgrass (surinam grass; [7]): 2 | Plant response rating, B. signalgrass (surinam grass; [8]): 6 | Plant response rating, Blackgrass (blackgrass; [1]): 0 | Blackgrass plant response rating (blackgrass; [2]): 0 | Blackgrass plant response rating (blackgrass; [3]): 0 | Plant response rating, Blackgrass (blackgrass; [4]): 4 | Blackgrass plant response rating (blackgrass; [5]): 0 | Blackgrass plant response rating (blackgrass; [6]): 0 | Plant response rating, Blackgrass (blackgrass; [7]): 0 | Plant response rating, Blackgrass (blackgrass; [8]): 8 | Plant response rating, Redroot pigweed (pigweed; [1]): 0 | Redroot pigweed plant response rating (pigweed; [2]): 0 | Redroot pigweed plant response rating (pigweed; [3]): 0 | Redroot pigweed plant response rating (pigweed; [5]): 0 | Redroot pigweed plant response rating (pigweed; [6]): 0 | Plant response rating, Redroot pigweed (pigweed; [7]): 0 | Plant response rating, Redroot pigweed (pigweed; [8]): 5 | Plant response rating, Barnyardgrass (0 to 10 scale, 0 is no effect, 10 is complete control) (bamyardgrass; [9]): 0 | Barnyardgrass plant response rating (0 to 10 scale, 0 is no effect, 10 is complete control) (bamyardgrass; [10]): 0 | Barnyardgrass plant response rating (bamyardgrass; [11]): 0 | Barnyardgrass plant response rating (bamyardgrass; [12]): 0
